Measured values: US9303033B2, “Pyrazolopyrimidines and related heterocycles as CK2 inhibitors” (SENHWA BIOSCIENCES, INC., priority 2009, dated 2016)
Where two headings read alike, the source gives them in different places.

Legend:
[1] = tested on: BxPC3 human pancreatic adenocarcinoma cells; assay: Cell proliferation assay with Alamar Blue (AB), BxPC3; format: cell-based
Description: (§1) A representative cell-proliferation assay protocol using Alamar Blue dye (stored at 4° C., use 20 ul per well) is described hereafter.
(§2) a. Split and trypsinize cells.
(§3) b. Count cells using hemocytometer.
(§4) c. Plate 4,000-5,000 cells per well in 100 μl of medium and seed into a 96-well plate according to the following plate layout. Add cell culture medium only to wells B10 to B12.
(§5) d. Add 100 μl of 2× drug dilution to each well in a concentration shown in the plate layout above. […] Total volume is 200 μl/well.
(§6) e. Incubate four (4) days at 37° C., 5% CO2 in a humidified incubator.
(§7) f. Add […] Alamar Blue reagent to each well.
(§8) g. Incubate for four (4) hours at 37° C., 5% CO2 in a humidified incubator.
(§9) h. Record fluorescence at an excitation wavelength of 544 nm and emission wavelength of 590 nm using a microplate reader.
(§10) In the assays, cells are cultured with a test compound for approximately four days, the dye is then added to the cells and fluorescence of […] dye is detected after approximately four hours. Different types of cells can be utilized in the assays (e.g., HCT-116 human colorectal carcinoma cells, PC-3 human prostatic cancer cells, MDA-MB231 human breast cancer cells, K-562 human chronic myelogenous leukemia (CML) cells, MiaPaca human pancreatic carcinoma cells, MV-4 human acute myeloid leukemia cells, and BxPC3 human pancreatic adenocarcinoma cells).

[2] = target: recombinant human PIM2 (Homo sapiens (Human), UniProt Q9P1W9); assay: PIM-2 assay (33P-ATP filter binding); format: biochemical; conditions: for PIM2: % inh […]: at […] compound
recombinant human PIM2, sequence (Q9P1W9 whole entry): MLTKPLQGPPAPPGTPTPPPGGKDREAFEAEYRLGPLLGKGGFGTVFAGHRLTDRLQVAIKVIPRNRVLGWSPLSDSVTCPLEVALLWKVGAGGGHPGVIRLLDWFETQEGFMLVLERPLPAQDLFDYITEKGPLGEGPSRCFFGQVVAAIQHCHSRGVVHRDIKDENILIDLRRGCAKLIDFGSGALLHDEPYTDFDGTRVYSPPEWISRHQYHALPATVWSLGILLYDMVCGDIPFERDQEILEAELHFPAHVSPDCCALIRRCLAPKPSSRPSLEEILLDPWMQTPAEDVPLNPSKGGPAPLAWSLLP
Description: Test compounds dissolved and diluted in DMSO (2 μl) were added to a reaction mixture comprising 10 μl of 5× Reaction Buffer (40 mM MOPS pH 7.0, 5 mM EDTA), 10 μl of recombinant human PIM2 solution (4 ng PIM-2 dissolved in dilution buffer (20 mM MOPS pH 7.0; EDTA 1 mM; 5% Glycerol; 0.01% Brij 35; 0.1%; 0.1% 2-mercaptoethanol; 1 mg/ml BSA)) and 8 ul of water.

[3] = target: CK2 ααββ (Homo sapiens (Human), UniProt P68400); assay: CK2 assay (cell-free, 33P-ATP, phosphocellulose filter plate); format: biochemical
CK2 ααββ, sequence (P68400 whole entry): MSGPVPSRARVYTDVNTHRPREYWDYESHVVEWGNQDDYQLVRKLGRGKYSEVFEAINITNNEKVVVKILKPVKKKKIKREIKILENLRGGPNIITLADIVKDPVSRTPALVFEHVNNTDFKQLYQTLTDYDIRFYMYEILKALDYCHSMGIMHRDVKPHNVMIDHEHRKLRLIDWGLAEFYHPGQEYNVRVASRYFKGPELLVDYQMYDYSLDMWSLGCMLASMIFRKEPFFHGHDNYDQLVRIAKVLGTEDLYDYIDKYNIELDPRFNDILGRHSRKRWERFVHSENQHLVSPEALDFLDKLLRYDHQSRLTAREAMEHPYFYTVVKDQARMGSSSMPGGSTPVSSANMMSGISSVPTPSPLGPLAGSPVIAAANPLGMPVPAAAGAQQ
CK2 ααββ, sequence (P67870 whole entry partner): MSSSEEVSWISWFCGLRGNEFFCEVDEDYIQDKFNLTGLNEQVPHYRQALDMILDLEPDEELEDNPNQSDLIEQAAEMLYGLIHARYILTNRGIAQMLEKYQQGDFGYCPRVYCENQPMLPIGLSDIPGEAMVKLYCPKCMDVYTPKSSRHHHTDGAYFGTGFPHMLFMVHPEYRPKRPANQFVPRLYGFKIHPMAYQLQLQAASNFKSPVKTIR
Description: Modulatory activity of compounds described herein was assessed in vitro in cell-free CK2 assays by the following method.
Reactions were maintained for 40 min at 23° C. The reactions were quenched with 100 ul of 0.75% Phosphoric acid, then transferred to and filtered through a Phosphocellulose filter plate (Millipore, MSPH-N6B-50). After washing each well 4 times with 0.75% Phosphoric acid, scintillation fluid (20 uL) was added to each well and the residual radioactivity was measured using a Wallac luminescence counter.

[4] = tested on: MDAMB453; assay: Cell proliferation assay with Alamar Blue (AB), MDAMB453; format: cell-based
Description: as §1, §2, §3, §4, §5, §6, §7, §8, §9, §10

[5] = Homo sapiens, BXPC-3, read-out: AB: BxPC3
[6] = PIM2: IC50 (5 μM ATP), 5 μM ATP
[7] = Homo sapiens, MDA-MB-453, MDAMB453 cells, read-out: AB: MDAMB453
[8] = MDAMB453 cells, read-out: AB: MDAMB453 IC50
[9] = read-out: PIM2: IC50 (5 μM ATP), 5 μM ATP

SMILES	IC50 [1, 5] [µM]	IC50 [2, 6] [µM]	IC50 [3] [µM]	IC50 [4, 7] [µM]	other results
NC(=O)c1cccc(-c2cc(NC3CC3)n3ncc(/C=C4\NC(=O)NC4=O)c3n2)c1 [Example U3]	3.68	> 2.5	< 0.01	3.74	–
O=C1NC(=O)/C(=C/c2cnn3c(Nc4cccc(C(=O)O)c4)cc(Nc4cccc(Cl)c4)nc23)N1 [Example D7]	> 30	> 2.5	< 0.1	14.2	–
O=C1NC(=O)/C(=C/c2cnn3c(NC4CC4)cc(Nc4ccc(F)cc4Cl)nc23)N1 [Example L1]	1.35	> 2.5	< 0.01	0.5	–
O=C1NC(=O)/C(=C/c2cnn3c(NCCO)cc(Nc4cccc(Cl)c4)nc23)N1 [Example D6]	1.92	0.475	< 1	0.717	–
CN(C)c1ccc(-c2cc(NC3CC3)n3ncc(/C=C4\NC(=O)NC4=O)c3n2)cn1 [Example P4]	0.549	0.0754	< 0.01	5.28	–
O=C1NC(=O)/C(=C/c2cnn3c(NC4CC4)cc(Nc4cccc(C(F)(F)F)c4)nc23)N1 [Example J1]	3.92	2.48	< 0.01	7.12	–
O=C1NC(=O)/C(=C/c2cnn3c(NC4CCN(CCO)CC4)cc(Nc4cccc(Cl)c4)nc23)N1 [Example P5]	16.5	> 2.5	< 0.1	0.825	–
O=C1NC(=O)/C(=C/c2cnn3c(NC4CC4)cc(-c4cccc(OCCCO)c4)nc23)N1 [Example B4]	7.91	2.17	< 0.01	7.87	–
Cc1c(N2CCN(c3ccccn3)CC2)nc2c(C=C3NC(=O)NC3=O)cnn2c1NC1CC1 [Example Q46]	–	–	< 0.01	–	IC50 ([1]; read-out: AB: BxPC3 IC50): > 30 µM; PIM2: % inh […] [2]: 13.151%; IC50 [4, 8]: > 30 µM
O=C1NC(=O)/C(=C/c2cnn3c(NC4CC4)cc(-c4ccncc4)nc23)N1 [Example Q4]	0.745	0.256	< 0.01	1.07	–
Nc1cc(Nc2cccc(Cl)c2)nc2c(/C=C3\NC(=O)NC3=O)cnn12 [Example A1, 5-((7-amino-5-(3-chlorophenylamino)pyrazolo[1,5-a]pyrimidin-3-yl)methylene)imidazolidine-2,4-dione]	16.6	1.18	< 0.1	2.46	–
O=C1NC(=O)/C(=C/c2cnn3c(NC4CC4)cc(N4CC[C@@H](F)C4)nc23)N1 [Example P2]	2.12	0.708	< 0.01	0.66	–
O=C1NC(=O)/C(=C/c2cnn3c(NC4CC4)cc(-c4cccc(CN5CCOCC5)c4)nc23)N1 [Example M4]	14.4	1.25	< 0.01	> 30	–
CC(C)(C)CC(=O)Nc1cc(NC2CC2)n2ncc(/C=C3\NC(=O)NC3=O)c2n1 [Example M2]	4.87	0.359	< 0.01	6.68	–
Cc1c(Nc2cccc(Cl)c2)nc2c(C=C3NC(=O)NC3=O)cnn2c1NC1CC1 [Example B46]	–	–	< 0.01	–	IC50 ([1]; read-out: AB: BxPC3 IC50): > 30 µM; PIM2: % inh […] [2]: 47.606%; IC50 [4, 8]: 24.2 µM
O=C1NC(=O)/C(=C/c2cnn3c(NC4CC4)cc(-c4cccc(O)c4)nc23)N1 [Example S3]	10.6	0.614	< 0.01	0.33	–
CC(=O)c1cccc(-c2cc(NC3CC3)n3ncc(/C=C4\NC(=O)NC4=O)c3n2)c1 [Example W4]	> 30	2.08	< 0.01	12.3	–
CCOCCNc1cc(Nc2cccc(Cl)c2)nc2c(/C=C3\NC(=O)NC3=O)cnn12 [Example C6]	3.8	–	–	1.14	–
C=CCOc1cccc(-c2cc(NC3CC3)n3ncc(/C=C4\NC(=O)NC4=O)c3n2)c1 [Example E4]	11.8	> 2.5	< 0.01	1.17	–
CN(C)C(=O)N1CCC(Nc2cc(Nc3cccc(Cl)c3)nc3c(/C=C4\NC(=O)NC4=O)cnn23)CC1 [Example N5]	17.4	> 2.5	< 0.1	1.57	–
O=C1NC(=O)/C(=C/c2cnn3c(NCC4CC4)cc(NN4CCOCC4)nc23)N1 [Example Q2]	5.37	0.284	< 0.01	0.154	–
O=C1NC(=O)/C(=C/c2cnn3c(NC4CC4)cc(-c4cccc(OC(F)(F)F)c4)nc23)N1 [Example T3]	1.54	0.891	< 0.01	0.402	–

SMILES	IC50 [1, 5] [µM]	IC50 [2, 6] [µM]	IC50 [3] [µM]	IC50 [4, 7] [µM]	other results
O=C1NC(=O)/C(=C/c2cnn3c(NC4CCN(C(=O)C5CC5)CC4)cc(Nc4cccc(Cl)c4)nc23)N1 [Example L5]	2.4	> 2.5	< 0.01	0.993	–
N#Cc1cccc(-c2cc(NC3CC3)n3ncc(/C=C4\NC(=O)NC4=O)c3n2)c1 [Example D4]	23.6	> 2.5	< 0.01	1.05	–
O=C1NC(=O)/C(=C/c2cnn3c(NC4CC4)cc(SCc4ccccc4)nc23)N1	11	–	< 0.01	> 30	IC50 ([2]; 5 um ATP, read-out: PIM2: IC50 (5 um ATP)): > 2.5 µM
COC(=O)Nc1cc(NC2CC2)n2ncc(/C=C3\NC(=O)NC3=O)c2n1 [Example N2]	9.19	0.845	< 0.01	3.04	–
O=C1NC(=O)/C(=C/c2cnn3c(Nc4cccc(C(=O)N5CCNCC5)c4)cc(Nc4cccc(Cl)c4)nc23)N1 [Example F7]	14	1.23	< 0.01	1.59	–
CN(C)C1CCN(Cc2cc(-c3cc(NC4CC4)n4ncc(C=C5NC(=O)NC5=O)c4n3)cs2)C1 (stereo not drawn) [Compound Z13]	–	–	< 0.01	–	IC50 ([1]; read-out: AB: BxPC3): 10.2 µM; IC50 [2, 9]: > 2.5 µM; IC50 ([4]; MDAMB453 cells, read-out: AB: MDAMB453): 2.5 µM
CC(=O)NC1CCC(Nc2cc(NC3CC3)n3ncc(/C=C4\NC(=O)NC4=O)c3n2)CC1 (stereo not drawn) [Example A3]	> 30	–	< 0.01	> 30	IC50 [2, 9]: > 2.5 µM
O=C1NC(=O)/C(=C/c2cnn3c(NCC4CC4)cc(Nc4cccc(Cl)c4)nc23)N1 [Example T1]	12.3	0.509	< 0.01	2.2	–
O=C1NC(=O)/C(=C/c2cnn3c(NC4CC4)cc(NC4CCCC4)nc23)N1 [Example O2]	10.4	> 2.5	< 0.01	4.51	–
CN(C)c1ccc(-c2cc(NC3CC3)n3ncc(/C=C4\NC(=O)NC4=O)c3n2)cc1 [Example I4]	1.9	> 2.5	< 0.1	0.683	–
O=C1NC(=O)/C(=C/c2cnn3c(NC4CCNC4)cc(Nc4cccc(Cl)c4)nc23)N1 (stereo not drawn) [Example P6]	1.62	–	–	0.569	–
COc1cccc(-c2cc(NC3CC3)n3ncc(/C=C4\NC(=O)NC4=O)c3n2)c1 [Example A5]	1.74	–	< 0.01	0.948	–
O=C1NC(=O)/C(=C/c2cnn3c(NC4CCCC4)cc(Nc4cccc(Cl)c4)nc23)N1 [Example B6]	> 30	–	–	10.5	–
CC(CNc1cc(Nc2ccc(C#N)cc2Cl)nc2c(C=C3NC(=O)NC3=O)cnn12)N1CCOCC1 (racemic) [Example 522]	–	–	< 0.01	–	IC50 ([1]; read-out: AB: BxPC3 IC50): 10.4 µM; IC50 [4, 8]: 1.52 µM
CC(=O)NC1CCC(Nc2cc(NC3CC3)n3ncc(/C=C4\NC(=O)NC4=O)c3n2)CC1 (stereo not drawn) [Example D3]	–	–	< 0.01	–	IC50 [2, 9]: 0.476 µM
O=C1NC(=O)/C(=C/c2cnn3c(NC4CC4)cc(Nc4ccccn4)nc23)N1 [Example O1]	–	> 2.5	< 0.01	–	–
CCOC(=O)c1cc(F)cc(Nc2cc(NCC3CC3)n3ncc(/C=C4\NC(=O)NC4=O)c3n2)c1 [Example U1]	–	> 2.5	< 0.1	–	–
O=C1NC(=O)/C(=C/c2cnn3c(NC4CC4)cc(NC(=O)C4CC4)nc23)N1 [Example L2]	11	–	< 0.01	4.17	–
Cc1cc(-c2cc(NC3CC3)n3ncc(/C=C4\NC(=O)NC4=O)c3n2)cc(C)c1O [Example C5]	–	> 2.5	< 1	–	–
C[C@@H](Nc1cc(NC2CC2)n2ncc(/C=C3\NC(=O)NC3=O)c2n1)C1CC1 [Example X2]	–	1.95	< 0.01	–	–
O=C1NC(=O)/C(=C/c2cnn3c(NCCN4CCOCC4)cc(Nc4cccc(Cl)c4)nc23)N1 [Example L6]	–	2.19	< 2	–	–
O=C1NC(=O)/C(=C/c2cnn3c(NCC4CC4)cc(Nc4cc(F)cc(F)c4)nc23)N1 [Example J2]	–	> 2.5	< 0.1	–	–
